Biological target: Growth hormone secretagogue receptor type 1 (Homo sapiens, UniProt Q92847)
Assay: ChEBML_72507
Excerpt: Inhibition of ghrelin binding to Growth hormone secretagogue receptor expressed in BHK cells

Growth hormone secretagogue receptor type 1, sequence (Q92847 whole entry): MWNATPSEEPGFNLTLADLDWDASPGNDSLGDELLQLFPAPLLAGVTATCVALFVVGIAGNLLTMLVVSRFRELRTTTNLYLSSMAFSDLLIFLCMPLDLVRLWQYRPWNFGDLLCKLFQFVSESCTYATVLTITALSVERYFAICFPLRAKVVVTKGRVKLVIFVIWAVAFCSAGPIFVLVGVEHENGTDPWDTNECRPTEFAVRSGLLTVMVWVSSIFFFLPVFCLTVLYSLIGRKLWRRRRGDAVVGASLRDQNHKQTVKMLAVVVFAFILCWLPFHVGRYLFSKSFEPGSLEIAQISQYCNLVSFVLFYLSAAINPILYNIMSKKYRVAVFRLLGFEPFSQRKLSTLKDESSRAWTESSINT

`NCCCn1c(O)c(CCc2ccccc2)n(Cc2ccc(-c3ccccc3-c3nnn[nH]3)cc2)c1=O` [(S)-3-(3-Amino-propyl)-5-phenethyl-1-[2'-(2H-tetrazol-5-yl)-biphenyl-4-ylmethyl]-imidazolidine-2,4-dione] and `CN(C)C(=O)CCn1c(O)c(CCc2ccccc2)n(Cc2ccc(-c3ccccc3-c3nnn[nH]3)cc2)c1=O` [3-{(S)-2,5-Dioxo-4-phenethyl-3-[2'-(2H-tetrazol-5-yl)-biphenyl-4-ylmethyl]-imidazolidin-1-yl}-N,N-dimethyl-propionamide] cannot be ordered by IC50: over 100 µM for the first, over 100 µM for the second.

First: CN(C)c1ccc(-n2c(O)c(CCc3ccccc3)n(Cc3ccc(-c4ccccc4-c4nnn[nH]4)cc3)c2=S)cc1 [(S)-3-(4-Dimethylamino-phenyl)-5-phenethyl-1-[2'-(2H-tetrazol-5-yl)-biphenyl-4-ylmethyl]-2-thioxo-imidazolidin-4-one]
Second: CN(C)CCCn1c(O)c(Cc2ccccc2)n(Cc2ccc(-c3ccccc3-c3nnn[nH]3)cc2)c1=S [(S)-5-Benzyl-3-(3-dimethylamino-propyl)-1-[2'-(2H-tetrazol-5-yl)-biphenyl-4-ylmethyl]-2-thioxo-imidazolidin-4-one]
The IC50 of the first is higher: over 100 µM for the first, 35 µM for the second. The second is the more potent here.

`CN(C)CCCn1c(O)c(-c2ccccc2)n(Cc2ccc(-c3ccccc3-c3nnn[nH]3)cc2)c1=S` [(S)-3-(3-Dimethylamino-propyl)-5-phenyl-1-[2'-(2H-tetrazol-5-yl)-biphenyl-4-ylmethyl]-2-thioxo-imidazolidin-4-one] showed an IC50 of 35 µM.

Reference: BindingDB's records for doi:10.1016/j.bmcl.2003.11.012 (Novo Nordisk, 2003)
